From ChEMBL document CHEMBL4417621, “Methods to identify tas2r modulators” (2013) come the findings set out here.

Active and inactive are the calls of the source. The rule behind the calls is not given here.

The target in experiment [1] is T1, Taste receptor type 2 member 31 (Homo sapiens) (UniProt P59538).
T1 sequence (whole entry): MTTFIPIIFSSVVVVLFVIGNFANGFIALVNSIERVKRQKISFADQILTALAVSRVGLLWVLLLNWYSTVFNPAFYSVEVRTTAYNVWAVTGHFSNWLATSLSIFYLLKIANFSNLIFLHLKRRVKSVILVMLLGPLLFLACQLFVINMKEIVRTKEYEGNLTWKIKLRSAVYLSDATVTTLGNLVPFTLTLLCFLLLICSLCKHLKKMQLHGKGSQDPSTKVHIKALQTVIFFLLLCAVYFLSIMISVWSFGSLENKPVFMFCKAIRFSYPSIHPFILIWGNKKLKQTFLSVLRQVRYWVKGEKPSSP
The experiment is described as follows: Activation of full-length human TAS2R44 expressed in HEK293T/Galpha16-gustducin 44 cells assessed as effect on calcium flux by measuring deltaF/F0 ratio at 25 mM by Fluo-4 dye based FLIPR assay (reference value: […] +/ - 0.017). The experiment is classed as functional, cell-based. (Calcium assays in cells follow changes in intracellular calcium, usually with a dye or a luminescent sensor.)

In experiment [2] the target is T1, Taste receptor type 2 member 31 (Homo sapiens). The experiment is described as follows: Activation of full-length human TAS2R44 expressed in HEK293T/Galpha16-gustducin 44 cells assessed as effect on calcium flux by measuring deltaF/F0 ratio at 6.25 mM by Fluo-4 dye based FLIPR assay (reference value: 0.017 +/ - 0.009). Type of experiment: functional, cell-based.

Experiment [3] shares this target. The experiment is described as follows: Activation of full-length human TAS2R44 expressed in HEK293T/Galpha16-gustducin 44 cells assessed as effect on calcium flux by measuring deltaF/F0 ratio at 3.125 mM by Fluo-4 dye based FLIPR assay (reference value: […] +/ - 0.001). The experiment is classed as functional, cell-based.
Experiment [4] has the same target. The experiment is described as follows: Activation of full-length human TAS2R44 expressed in HEK293T/Galpha16-gustducin 44 cells assessed as effect on calcium flux by measuring deltaF/F0 ratio at 1.5625 mM by Fluo-4 dye based FLIPR assay (reference value: 0.017 +/ - 0.008). The experiment is classed as functional, cell-based.
For experiment [5], the target named is T2, Taste receptor type 2 member 1 (Homo sapiens) (UniProt Q9NYW7).
T2 sequence (whole entry): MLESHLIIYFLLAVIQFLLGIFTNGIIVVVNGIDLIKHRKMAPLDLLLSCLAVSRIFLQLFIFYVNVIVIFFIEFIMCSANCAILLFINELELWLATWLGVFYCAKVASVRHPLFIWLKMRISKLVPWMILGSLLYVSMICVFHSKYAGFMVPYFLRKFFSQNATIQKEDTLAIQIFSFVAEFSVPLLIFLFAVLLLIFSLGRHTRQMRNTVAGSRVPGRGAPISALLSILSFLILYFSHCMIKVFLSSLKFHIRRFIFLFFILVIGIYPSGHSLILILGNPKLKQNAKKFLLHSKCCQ
The experiment is described as follows: Activation of full-length human TAS2R1 expressed in HEK293T/Galpha16-gustducin 44 cells assessed as effect on calcium flux by measuring deltaF/F0 ratio at 12.5 mM by Fluo-4 dye based FLIPR assay. The experiment is classed as functional, cell-based.

Experiment [6] deals with T2, Taste receptor type 2 member 1 (Homo sapiens). The experiment is described as follows: Activation of full-length human TAS2R1 expressed in HEK293T/Galpha16-gustducin 44 cells assessed as effect on calcium flux by measuring deltaF/F0 ratio at 3.125 mM by Fluo-4 dye based FLIPR assay. The experiment is classed as functional, cell-based.
For experiment [7] the target is unchanged. The experiment is described as follows: Activation of full-length human TAS2R1 expressed in HEK293T/Galpha16-gustducin 44 cells assessed as effect on calcium flux by measuring deltaF/F0 ratio at 0.3906 mM by Fluo-4 dye based FLIPR assay. Type of experiment: functional, cell-based.
For experiment [8] the target is unchanged. The experiment is described as follows: (§1) Activation of full-length human TAS2R1 expressed in HEK293T/Galpha16-gustducin 44 cells assessed as effect on calcium flux by measuring deltaF/F0 ratio by Fluo-4 dye based FLIPR assay. The experiment is classed as functional, cell-based.
Experiment [9] concerns the target T3, Taste receptor type 2 member 1 (Homo sapiens, UniProt Q9NYW7).
T3 sequence (Q9NYW7 whole entry): T2 sequence (whole entry)
Described as §1. The experiment is classed as functional, cell-based.

For experiment [10], the target named is T4, Taste receptor type 2 member 10 (Homo sapiens) (UniProt Q9NYW0).
T4 sequence (whole entry): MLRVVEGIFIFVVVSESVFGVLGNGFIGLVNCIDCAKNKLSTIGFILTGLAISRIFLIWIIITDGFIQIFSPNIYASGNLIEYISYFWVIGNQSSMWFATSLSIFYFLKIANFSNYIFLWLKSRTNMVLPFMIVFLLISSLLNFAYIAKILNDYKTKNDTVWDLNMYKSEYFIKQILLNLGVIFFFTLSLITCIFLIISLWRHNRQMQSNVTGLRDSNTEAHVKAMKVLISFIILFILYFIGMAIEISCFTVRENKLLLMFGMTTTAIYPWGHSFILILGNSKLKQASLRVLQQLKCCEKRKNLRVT
The experiment is described as follows: Activation of full-length human TAS2R10 expressed in HEK293T/Galpha16-gustducin 44 cells assessed as effect on calcium flux by measuring deltaF/F0 ratio at 100 mM by Fluo-4 dye based FLIPR assay. Type of experiment: functional, cell-based.

In experiment [11] the target is T4, Taste receptor type 2 member 10 (Homo sapiens). The experiment is described as follows: Activation of full-length human TAS2R10 expressed in HEK293T/Galpha16-gustducin 44 cells assessed as effect on calcium flux by measuring deltaF/F0 ratio at 12.5 mM by Fluo-4 dye based FLIPR assay. Type of experiment: functional, cell-based.
For experiment [12] the target is unchanged. The experiment is described as follows: Activation of full-length human TAS2R10 expressed in HEK293T/Galpha16-gustducin 44 cells assessed as effect on calcium flux by measuring deltaF/F0 ratio at 6.25 mM by Fluo-4 dye based FLIPR assay. The experiment is classed as functional, cell-based.
The target is the same in experiment [13]. The experiment is described as follows: Activation of full-length human TAS2R10 expressed in HEK293T/Galpha16-gustducin 44 cells assessed as effect on calcium flux by measuring deltaF/F0 ratio at 0.7813 mM by Fluo-4 dye based FLIPR assay. The experiment is classed as functional, cell-based.
Experiment [14] shares this target. The experiment is described as follows: Activation of full-length human TAS2R10 expressed in HEK293T/Galpha16-gustducin 44 cells assessed as effect on calcium flux by measuring deltaF/F0 ratio by Fluo-4 dye based FLIPR assay. The experiment is classed as functional, cell-based.
In experiment [15] the target is T5, Taste receptor type 2 member 46 (Homo sapiens) (UniProt P59540).
T5 sequence (whole entry): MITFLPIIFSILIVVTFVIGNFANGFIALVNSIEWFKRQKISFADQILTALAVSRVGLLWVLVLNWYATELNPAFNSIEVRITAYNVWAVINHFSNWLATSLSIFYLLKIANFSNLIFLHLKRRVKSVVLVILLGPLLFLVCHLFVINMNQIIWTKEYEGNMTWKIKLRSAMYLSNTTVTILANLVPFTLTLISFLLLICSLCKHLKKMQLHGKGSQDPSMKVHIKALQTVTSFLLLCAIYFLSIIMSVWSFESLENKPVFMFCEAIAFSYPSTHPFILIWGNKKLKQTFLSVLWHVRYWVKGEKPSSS
The experiment is described as follows: Activation of full-length human TAS2R46 expressed in HEK293T/Galpha16-gustducin 44 cells assessed as effect on calcium flux by measuring deltaF/F0 ratio at 3.125 mM by Fluo-4 dye based FLIPR assay. The experiment is classed as functional, cell-based.

Experiment [16] concerns the target T5, Taste receptor type 2 member 46 (Homo sapiens). The experiment is described as follows: Activation of full-length human TAS2R46 expressed in HEK293T/Galpha16-gustducin 44 cells assessed as effect on calcium flux by measuring deltaF/F0 ratio at 0.7813 mM by Fluo-4 dye based FLIPR assay. The experiment is classed as functional, cell-based.
The species named for a further experiment is Homo sapiens. The experiment is described as follows: Induction of bitter sensitivity in bitter sensitive human panelists tasting solution containing 3 mM compound in absence of 13 ppm (E)-4-(2,2,3-trimethylcyclopent-3-enyl)but-2-enoic acid. The experiment is classed as functional, organism-based.

`OC[C@H]1O[C@H](O[C@]2(CCl)O[C@H](CCl)[C@@H](O)[C@@H]2O)[C@H](O)[C@@H](O)[C@H]1Cl` [SUCRALOSE]: the Ratio worked out at 0.197 in [1]; 0.059 in experiment [2]; 0.043 in experiment [3]; 0.026 in [4]; 0.072 in [5]; 0.059 in [6]. The Ratio in experiment [7] was found to be 0.052; in experiment [10] it was 0.437; in experiment [11] it was 0.059; in experiment [12], 0.053; in experiment [13] it was 0.05; in experiment [15], 0.036. The Ratio in experiment [16] stood at 0.038. For the same compound, the Activity entry in experiment [8] and in experiment [14] was “Dose-dependent effect” in each case. For the same compound, the EC50 (as a rule, the concentration giving half of the maximal effect) in experiment [9] worked out at 36.3 mM. Further, the outcome in the experiment listed under Homo sapiens was Active.
